Drawing on patent US20250179045A1, “LPAR1 ANTAGONISTS AND USES THEREOF” (Contineum Therapeutics, Inc., priority 2021, published 2025), this text covers IC50 for 24 compounds.

human LPA1, sequence (Q92633 whole entry): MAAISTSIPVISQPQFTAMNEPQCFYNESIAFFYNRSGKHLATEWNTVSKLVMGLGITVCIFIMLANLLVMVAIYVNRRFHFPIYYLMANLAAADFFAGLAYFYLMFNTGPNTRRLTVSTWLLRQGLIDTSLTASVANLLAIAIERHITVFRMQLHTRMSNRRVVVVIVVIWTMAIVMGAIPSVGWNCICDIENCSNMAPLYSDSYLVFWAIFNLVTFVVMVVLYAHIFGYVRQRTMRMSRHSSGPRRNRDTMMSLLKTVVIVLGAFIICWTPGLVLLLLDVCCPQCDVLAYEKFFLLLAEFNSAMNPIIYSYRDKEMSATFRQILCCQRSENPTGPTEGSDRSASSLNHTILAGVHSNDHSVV

The target of the assay is human LPA1 (Homo sapiens, UniProt Q92633). Kind of assay: In vitro functional assay of lysophosphatidic acid receptor 1 activity (calcium flux). The format is cell-based. As to conditions: B103 cells stably expressing human LPA1; Fluo-4 NW calcium flux after lysophosphatidic acid (18:1) at EC80; compounds 100 pM to 10 μM; read-out: LPA1 IC50. The protocol:
In vitro functional assay of lysophosphatidic acid receptor 1 activity
Primary compound plates were prepared in 100% DMSO (Sigma-Aldrich), secondary compound plates were prepared at 10× concentration in DiVEM (Invitrogen), and tertiary compound plates were prepared at 3x concentration in assay buffer containing HBSS (no Ca^+2/Mg^+2, Invitrogen) and 0.1% BSA (Sigma-Aldrich). Fluo-4 NW calcium assay dye (Invitrogen) was prepared as per manufacturer's recommendations in assay buffer. B103 cells stably expressing human LPA1(J. Chun lab, UCSD) were grown to confluency in DMEM media (Invitrogen) containing 10% FBS (ATCC), […] (Sigma-Aldrich) and […] Geneticin (Sigma-Aldrich), and detached with Accutase (Sigma-Aldrich) prior to assay. The freshly detached cells were resuspended in growth media and plated in black, clear-bottom 96-well plates (Costar) containing compound (i.e., secondary compound plate) at a density of 5×10^4 cells/well. Once plated, cells were left at room temperature for 30 minutes and then transferred to a 37° C., […] incubator for 24 hours. After 24 hours, the growth media was then removed and freshly prepared Fluo-4 NW calcium assay dye was added to cells. Compounds (i.e. tertiary compound plates) were then added back to the dye/cells, returned to the incubator for 30 minutes, and then kept at room temperature for an additional 30 minutes. Finally, lysophosphatidic acid (18:1) at the EC80 concentration was added and calcium flux measured using FlexStation 3 (Molecular Devices). Sigmoidal dose-response curves were generated by measuring […] over 45 sec and calculating the area under the curve. Dose response curves and IC50 values were generated using Prism (GraphPad). Compounds were tested at a final concentration range of 100 pM to 10 μM in 0.10% DMSO.
In general terms: Calcium flux is commonly read through the fluorescence of an indicator in the cells.
Consider `COc1cc(CF)ccc1NC(=O)C1(c2ccccc2C(C)C)CNC(=O)C1` (stereo not drawn) [Example 115, N-(4-(fluoromethyl)-2-methoxyphenyl)-3-(2-isopropylphenyl)-5-oxopyrrolidine-3-carboxamide], for which the IC50 is 0.1 to 1 µM.

For `Cc1ccc(NC(=O)C2(c3ccccc3C(C)C)CC(CC(=O)O)C2)c(OC(F)F)n1` (mixture of isomers) [Example 45, 2-(3-((2-(difluoromethoxy)-6-methylpyridin-3-yl)carbamoyl)-3-(2-isopropylphenyl)cyclobutyl)acetic acid], the IC50 is less than 0.01 µM. As to `Cc1ccc(NC(=O)C2(c3ccccc3C(C)C)CC(CC(=O)N(C)C)C2)c(OC(F)F)n1` (stereo not drawn) [Example 67, N-(2-(difluoromethoxy)-6-methylpyridin-3-yl)-3-(2-(dimethylamino)-2-oxoethyl)-1-(2-isopropylphenyl)cyclobutane-1-carboxamide], the half-maximal inhibitory concentration (IC50) was in the range of 0.1 to 1 µM. In the case of `CC(C)c1ccccc1C1(C(=O)Nc2ncc(Cl)cc2OC(F)F)COC1` [Example 22, N-(5-chloro-3-(difluoromethoxy)pyridin-2-yl)-3-(2-isopropylphenyl)oxetane-3-carboxamide], the half-maximal inhibitory concentration (IC50) is 0.01 to 0.1 µM.

On to `Cc1ccc(NC(=O)C2(c3ccccc3C(C)C)CC(O)(c3ccc(C#N)cn3)C2)c(OC(F)F)n1` (stereo not drawn) [Example 50, 3-(5-cyanopyridin-2-yl)-N-(2-(difluoromethoxy)-6-methylpyridin-3-yl)-3-hydroxy-1-(2-isopropylphenyl)cyclobutane-1-carboxamide], for which the 50% inhibitory concentration (IC50) was in the range of 0.01 to 0.1 µM.

Consider `COc1ccc(NC(=O)C2(c3ccccc3C(C)C)CCC(C(N)=O)CC2)c(OC(F)F)n1` (mixture of isomers) [Example 96, N^1-(2-(difluoromethoxy)-6-methoxypyridin-3-yl)-1-(2-isopropylphenyl)cyclohexane-1,4-dicarboxamide], for which the IC50 fell in the range of 0.1 to 1 µM.

Take `COc1ccc(NC(=O)C2(c3ccccc3C(C)C)CNC(=O)C2)c(OC)n1` (stereo not drawn) [Example 103, N-(2,6-dimethoxypyridin-3-yl)-3-(2-isopropylphenyl)-5-oxopyrrolidine-3-carboxamide]: the IC50 lay within 0.1 to 1 µM.

Consider `COc1ccc(NC(=O)C2(c3ccccc3C(C)C)COC2)c(OC(F)F)n1` [Example 15, N-(2-(difluoromethoxy)-6-methoxypyridin-3-yl)-3-(2-isopropylphenyl)oxetane-3-carboxamide], for which the IC50 was less than 0.01 µM. Under `COc1ccc(NC(=O)[C@]2(c3ccccc3C(C)C)C[C@H](CC(N)=O)C2)c(OC(F)F)n1` [Example 117, cis-3-(2-amino-2-oxoethyl)-N-(2-(difluoromethoxy)-6-methoxypyridin-3-yl)-1-(2-isopropylphenyl)cyclobutane-1-carboxamide] stands 0.01 to 0.1 µM; under `Cc1ccc(NC(=O)C2(c3ccccc3C(C)C)CC(NC3CC3)C2)c(OC(F)F)n1` (single isomer, unassigned) [Example 40-isomer B, 3-(cyclopropylamino)-N-(2-(difluoromethoxy)-6-methylpyridin-3-yl)-1-(2-isopropylphenyl)cyclobutane-1-carboxamide], 0.1 to 1 µM. As for `CCOCN1CC(C(=O)Nc2ncc(Cl)cc2OC(F)F)(c2ccccc2C(C)C)CC1=O` (stereo not drawn) [Example 11, N-(5-chloro-3-(difluoromethoxy)pyridin-2-yl)-1-(ethoxymethyl)-3-(2-isopropylphenyl)-5-oxopyrrolidine-3-carboxamide], the IC50 lay in the range of 0.1 to 1 µM. Turning to `COc1cc(Cl)ccc1NC(=O)C1(c2ccccc2C(C)C)COC1` [Example 21, N-(4-chloro-2-methoxyphenyl)-3-(2-isopropylphenyl)oxetane-3-carboxamide], the 50% inhibitory concentration (IC50) is 0.01 to 0.1 µM. For `Cc1ccc(NC(=O)C2(c3ncccc3C(C)C)CC(CC(=O)O)C2)c(OC(F)F)n1` (stereo not drawn) [Example 48, 2-(3-((2-(difluoromethoxy)-6-methylpyridin-3-y1)carbamoyl)-3-(3-isopropylpyridin-2-yl)cyclobutyl)acetic acid], the concentration for half-maximal inhibition (IC50) is 0.01 to 0.1 µM. Next, `Cc1ccc(NC(=O)C2(c3ccccc3C(C)C)CC(N(C)C)C2)c(OC(F)F)n1` (stereo not drawn) [Example 39, N-(2-(difluoromethoxy)-6-methylpyridin-3-yl)-3-(dimethylamino)-1-(2-isopropylphenyl)cyclobutane-1-carboxamide]: 0.1 to 1 µM; `COc1ccc(NC(=O)C2(c3ccccc3C(C)C)CC(CO)C2)c(OC)n1` (stereo not drawn) [Example 60, N-(2,6-dimethoxypyridin-3-yl)-3-(hydroxymethyl)-1-(2-isopropylphenyl)cyclobutane-1-carboxamide]: 0.01 to 0.1 µM. Consider `CC(C)c1ccccc1C1(C(=O)Nc2cnc(Cl)cc2OC2CC2)COC1` [Example 32, N-(6-chloro-4-cyclopropoxypyridin-3-yl)-3-(2-isopropylphenyl)oxetane-3-carboxamide], for which the half-maximal inhibitory concentration (IC50) was in the range of 0.1 to 1 µM. In the case of `Cc1ccc(NC(=O)C2(c3ccccc3C(C)C)CC(Cc3nnn[nH]3)C2)c(OC(F)F)n1` (mixture of isomers) [Example 112, 3-((1H-tetrazol-5-yl)methyl)-N-(2-(difluoromethoxy)-6-methylpyridin-3-yl)-1-(2-isopropylphenyl)cyclobutane-1-carboxamide], the IC50 is 0.01 to 0.1 µM. Under `COc1cc(C)ccc1NC(=O)C1(c2ccccc2C(C)C)CNC(=O)C1` (single isomer, unassigned) [Example 102-isomer A, 3-(2-isopropylphenyl)-N-(2-methoxy-4-methylphenyl)-5-oxopyrrolidine-3-carboxamide] stands 0.01 to 0.1 µM. Turning to `COc1cc(Br)cnc1NC(=O)C1(c2ccccc2C(C)C)COC1` [Example 23, N-(5-bromo-3-methoxypyridin-2-yl)-3-(2-isopropylphenyl)oxetane-3-carboxamide], the IC50 lay in the range of 0.1 to 1 µM.

On to `Cc1ccc(NC(=O)C2(c3ccccc3C(C)C)CCOCC2)c(OC(F)F)n1` [Example 13, N-(2-(difluoromethoxy)-6-methylpyridin-3-yl)-4-(2-isopropylphenyl)tetrahydro-2H-pyran-4-carboxamide], for which the half-maximal inhibitory concentration (IC50) was 0.01 to 0.1 µM. Turning to `COC[C@H](C)Oc1cc(Cl)ncc1NC(=O)C1(c2ccccc2C(C)C)COC1` [Example 34, (S)-N-(6-chloro-4-((1-methoxypropan-2-yl)oxy)pyridin-3-yl)-3-(2-isopropylphenyl)oxetane-3-carboxamide], the IC50 fell in the range of 0.01 to 0.1 µM. As for `CC(C)c1ccccc1C1(C(=O)Nc2ncc(Cl)cc2OC(F)F)CC(=O)N(C)C1` (single isomer, unassigned) [Example 7, N-(5-chloro-3-(difluoromethoxy)pyridin-2-yl)-3-(2-isopropylphenyl)-1-methyl-5-oxopyrrolidine-3-carboxamide], the IC50 was in the range of 0.1 to 1 µM. Regarding `COc1ccc(NC(=O)C2(c3ccccc3C(C)C)CCC(N=[N+]=[N-])CC2)c(OC(F)F)n1` (stereo not drawn) [Example 84, 4-azido-N-(2-(difluoromethoxy)-6-methoxypyridin-3-yl)-1-(2-isopropylphenyl)cyclohexane-1I-carboxamide], the half-maximal inhibitory concentration (IC50) was in the range of 0.01 to 0.1 µM. Under `C#CC1(O)CCC(C(=O)Nc2ccc(OC)nc2OC(F)F)(c2ccccc2C(C)C)CC1` (stereo not drawn) [Example 82, N-(2-(difluoromethoxy)-6-methoxypyridin-3-yl)-4-ethynyl-4-hydroxy-1-(2-isopropylphenyl)cyclohexane-1-carboxamide] stands less than 0.01 µM.

In general, IC50 refers to the concentration that inhibits the measured activity by half.
